Assay results from patent US20220168252A1, “RETINOID DERIVATIVES WITH ANTITUMOR ACTIVITY” (BIOGEM S.C. A R.L., priority 2016, published 2022).

Assays:
[1] = tested on: human Pleural Epithelioid Mesothelioma MM473; experiment: Orthotopic mesothelioma model MM473 xenografted on nude mice; format: in vivo; settings: 50 mg/kg OS, bid, qdx5/wx4w
Experimental: (MM473-Luc) were re-suspended at the concentration of 1×10^6 cells/40 μl M199 medium., then orthotopically injected intrapeulically with infusion of […] (with Hamilton syringe).
Tumor growth was followed by biweekly measurements. […] Mice were weighed twice a week. […] Tumor growth was further followed by weekly BLI measurements. TGI was calculated as for the H460 trial.

MM487-Luc mesothelioma [2] = experiment: Anti-proliferative activity, MM487-Luc, 72 h, SRB; format: cell-based, Human; settings: Homo sapiens, read-out: MM487-Luc IC50 ± SD
Experimental: (§1) The anti-proliferative activity of the POLA1/HDAC dual inhibitors MIR002 and GEM144 was assessed on various cell lines from solid and hematological cancers.
(§2) HDAC=Histone Deacetylase. POLA1=DNA Polymerase Alpha 1. N.e.=not evaluated.

[3] = tested on: ST1926-resistant H460 (H460-R9A) NSCLC; experiment: Anti-proliferative activity, H460-R9A, 72 h, SRB; format: cell-based, human
Experimental: as §1
(§3) Human tumor cells were treated with POLA1/HDAC dual inhibitors and cell survival assessed upon 72 h with the SRB assay. HDAC=Histone Deacetylase. POLA1=DNA Polymerase Alpha 1. RI=Resistance Index.

U2932 (lymphoma) = experiment: Cell survival, U2932, 72 h, MTT; format: cell-based, Human; settings: Homo sapiens, U2932, read-out: U2932 (lymphoma) IC50 ± SD
Experimental: as §1
(§4) Tumor cells were treated with POLA1/HDAC dual inhibitors and cell survival assessed upon 72 h with the MTT assay. HDAC=Histone Deacetylase. POLA1=DNA Polymerase Alpha 1.

MM473-Luc mesothelioma = experiment: Anti-proliferative activity, MM473-Luc, 72 h, SRB; format: cell-based, Human; settings: Homo sapiens, read-out: MM473-Luc IC50 ± SD
Experimental: as §1, §2

NB4 (leukemia) = experiment: Cell survival, NB4, 72 h, MTT; format: cell-based, Human; settings: Homo sapiens, read-out: NB4 (leukemia) IC50 ± SD
Experimental: as §1, §4

MM487-Luc mesothelioma [4] = experiment: Anti-proliferative activity, MM487-Luc, 24 h + 48 h recovery, SRB; format: cell-based; settings: Homo sapiens, 24 h exposure, read-out: IC50 ± SD MM487-Luc
Experimental: (§5) Tumor cells were exposed for 24 h to new atypical retinoids (AR) and the anti-proliferative activity assessed upon 48 h recovery in drug-free medium with the SRB assay. RI=Resistance Index (ratio between the IC50 values of resistant and sensitive cells).

U87MG glioblastoma cells = experiment: Anti-proliferative activity, U87MG, 24 h + 48 h recovery, SRB; format: cell-based; settings: Homo sapiens, U-87 MG, 24 h exposure, read-out: IC50 ± SD U87MG
Experimental: as §5

[5] = tested on: multidrug-resistant A2780-Dx ovarian carcinoma; experiment: Anti-proliferative activity, A2780-Dx, 72 h, SRB; format: cell-based, human; settings: 72 h
Experimental: as §1, §3

[6] = tested on: A2780-Dx multidrug-resistant ovarian cancer cell line; experiment: Anti-proliferative activity, A2780-Dx, 24 h + 48 h recovery, SRB; format: cell-based, Human
Experimental: as §5
As described by Zuco V. et al in Neoplasia, 2005 July; 7(7):667-77, H460-R9A are about 70 fold resistant with respect to parental H460 to Adarotene. […] Ovarian cancer A2780 and its clone derivative A2780DX (Doxorubicin resistant) which overexpress P-glycoprotein (PGP), were used to evaluate the possibility of these new molecules to be absorbed at intestinal level. In fact, the overexpression of PGP, as well known, drastically reduces the possibility, after oral administration, of absorption of several chemotherapeutic agents (i.e. Paclitaxel, doxorubicin etc.). Since the IC50 of the tested compounds in A2780 and A2780DX, have similar values we conclude that they are not PGP substrates and they could be administrated to the patients via oral route.

[7] = tested on: H460-R9A retinoid resistant cells; experiment: H460-R9A lung cancer subcutaneous xenograft in mice; settings: Cisplatin 4 mg/kg IV q7dx4w, MIR002 50 mg/kg OS bid, qdx5/wx4w
Experimental: CD-1 nude and NOG mice, females, 4-5 weeks-old, were housed under specific-pathogen-free conditions in individually ventilated cages.
Cells were cultured in appropriated media and expanded in a 37° C. incubator with saturated humidity and an atmosphere of 95% air and 5% CO2, and were sub-cultured every 2-3 days. Before the injection in mice, cells were checked with MycoAlert® Mycoplasma Detection Kit (Lonza) to exclude mycoplasma contamination, counted by trypan blue dye exclusion, evaluated for cell viability (>95%).
H-460-R9A lung cancer cells were suspended at a concentration of 25×10^6/ml. 5×10^6 tumor cells were suspended in 0.2 ml of M199, then inoculated subcutaneously on the right flank of each animal.
MIR002 was dissolved to a concentration of 3.3 mg/mL in 10% DMSO, 5% ethanol, 20% Kolliphor® EL and 65% Na2CO3 10 mM pH 11 and administered by gavage; Cisplatin was dissolved to a concentration of 0.8 mg/mL in sterile saline solution and administered intravenously.
Four days after inoculation, tumor masses of H460-R9A were measured in length and width using a Mitutoyo caliper, mice were sorted basing on tumor volume (TV) and treatments were started. Tumor volume was calculated as follows: TV (mm3)=(Length (mm)×Width (mm)2)/2. Tumor growth was followed by biweekly measurements. Tumor Growth Inhibition (TGI) for each group was calculated as follows: TGI (%)=100−(mean TVtreated/mean TVcontrol×100). Mice were weighed twice a week.

Human NCI-H460 NSCLC [8] = experiment: Anti-proliferative activity, NCI-H460, 72 h, SRB; format: cell-based; settings: Homo sapiens, NCI-H460
Experimental: as §1, §3

Z138 (lymphoma) = experiment: Cell survival, Z138, 72 h, MTT; format: cell-based, Human; settings: Homo sapiens, Z-138, read-out: Z138 (lymphoma) IC50 ± SD
Experimental: as §1, §4

THP-1 (leukemia) = experiment: Cell survival, THP-1, 72 h, MTT; format: cell-based, Human; settings: Homo sapiens, THP-1, read-out: THP-1 (leukemia) IC50 ± SD
Experimental: as §1, §4

[9] = tested on: MDA-MB436 breast carcinoma; experiment: Anti-proliferative activity, MDA-MB436, 72 h, SRB; format: cell-based; settings: Homo sapiens, MDA-MB-436, read-out: DA-MB436 (Breast) IC50 ± SD
Experimental: as §1, §2

[10] = tested on: parent A2780 ovarian cancer cell line; experiment: Anti-proliferative activity, A2780, 24 h + 48 h recovery, SRB; format: cell-based; settings: Homo sapiens, 24 h exposure, read-out: IC50 ± SD A2780
Experimental: as §5

MM432-Luc mesothelioma = experiment: Anti-proliferative activity, MM432-Luc, 72 h, SRB; format: cell-based; settings: Homo sapiens, read-out: MM432-Luc IC50 ± SD
Experimental: as §1, §2

[11] = tested on: NB4 (pro-myelocytic. leukemia); experiment: Anti-proliferative activity, NB4, 24 h + 48 h recovery, MTT; format: cell-based; settings: Homo sapiens, 24 h exposure
Experimental: (§6) Tumor cells were exposed for 24 h to new atypical retinoids (AR) and the anti-proliferative activity assessed upon 48 h recovery in drug-free medium with the MTT assay.

[12] = tested on: Z-138 mantle cell lymphoma; experiment: Anti-proliferative activity, Z-138, 24 h + 48 h recovery, MTT; format: cell-based; settings: Homo sapiens, 24 h exposure
Experimental: as §6

B16-Luc (Melanoma) = experiment: Anti-proliferative activity, B16-Luc, 72 h, SRB; format: cell-based, mouse; settings: Mus musculus, read-out: B16-Luc (Melanoma) IC50 ± SD
Experimental: as §1, §2

MDA-MB231 (Breast) = experiment: Anti-proliferative activity, MDA-MB231, 72 h, SRB; format: cell-based; settings: Homo sapiens, MDA-MB-231, read-out: MDA-MB231 (Breast) IC50 ± SD
Experimental: as §1, §2

U87MG-Luc glioma = experiment: Anti-proliferative activity, U87MG-Luc, 72 h, SRB; format: cell-based; settings: Homo sapiens, read-out: 87MG-Luc (Glioma) IC50 ± SD
Experimental: as §1, §2

Human NCI-H460 NSCLC [13] = experiment: Anti-proliferative activity, NCI-H460, 24 h exposure + 48 h recovery, SRB; format: cell-based; settings: 48 h recovery in drug-free medium, SRB (Table 1)
Experimental: Tumor cells were exposed for 24 h to new atypical retinoids (AR) and the anti-proliferative activity assessed upon 48 h recovery in drug-free medium with the SRB assay.

[14] = tested on: parent A2780 ovarian carcinoma; experiment: Anti-proliferative activity, A2780, 72 h, SRB; format: cell-based, human; settings: Homo sapiens, A2780, read-out: A2780 IC50 ± SD
Experimental: as §1, §3

[15] = tested on: Human Adarotene-resistant NCI-H460 (R9A) NSCLC; experiment: Anti-proliferative activity, H460-R9A, 24 h + 48 h recovery, SRB; format: cell-based; settings: 24 h exposure, read-out: IC50 ± SD H460-R9A
Experimental: as §5

SMILES: O=C(O)/C=C/c1ccc(-c2ccc(OCC(=O)NO)c(C34CC5CC(CC(C5)C3)C4)c2)cc1 [Compound 8, 3-(3′-Adamantan-1-yl-4′-hydroxycarbamoylmethoxybiphenyl-4-yl)-acrylic acid]
- BWL Day + 35 [1]: 0%
- TGI Day + 35 [1]: 77%
- IC50 (MM487-Luc mesothelioma [2]): 220 ± 20 nM
- RI (Resistance Index) ([3]; H460-R9A vs NCI-H460): 11.2
- IC50 ([3]; Homo sapiens, H460-R9A, SRB, read-out: H460-R9A IC50 ± SD): 2800 ± 50 nM
- IC50 (U2932 (lymphoma)): 520 ± 30 nM
- IC50 (MM473-Luc mesothelioma): 1200 ± 60 nM
- IC50 (NB4 (leukemia)): 180 ± 40 nM
- IC50 (MM487-Luc mesothelioma [4]): 4500 ± 300 nM
- IC50 (U87MG glioblastoma cells): 1100 ± 300 nM
- RI (Resistance Index) ([5]; A2780-Dx vs A2780): 0.7
- IC50 ([5]; Homo sapiens, A2780/DX, SRB, read-out: A2780-Dx IC50 ± SD): 410 ± 5 nM
- RI (Resistance Index, ratio between the IC50 values of resistant and sensitive cells) ([6]; A2780-Dx vs A2780, 24 h exposure): 0.7
- IC50 ([6]; Homo sapiens, A2780/DX, 24 h exposure, SRB, read-out: IC50 ± SD A2780-Dx): 410 ± 5 nM
- BWL Day + 35 ([7]; Adarotene 15 mg/Kg OS q7dx5x4w): 0%
- TGI Day + 35 ([7]; combination same doses): 38%
- IC50 (Human NCI-H460 NSCLC [8]; 72 h, SRB (Table 8), read-out: NCI-H460 IC50 ± SD): 250 ± 6 nM
- IC50 (Human NCI-H460 NSCLC [8]; chronically exposed 72 h, SRB (Table 2), read-out: IC50 ± SD): < 500 nM
- IC50 (Z138 (lymphoma)): 38 ± 3 nM
- IC50 (THP-1 (leukemia)): 420 ± 20 nM
- IC50 [9]: 640 ± 30 nM
- IC50 [10]: 600 ± 10 nM
- IC50 (MM432-Luc mesothelioma): 1500 ± 80 nM
- IC50 [11]: 180 ± 40 nM
- IC50 [12]: 74 ± 20 nM
- IC50 (B16-Luc (Melanoma)): 270 ± 20 nM
- IC50 (MDA-MB231 (Breast)): 1900 ± 200 nM
- IC50 (U87MG-Luc glioma): 1100 ± 300 nM
- IC50 (Human NCI-H460 NSCLC [13]): ≤ 500 nM
- IC50 [14]: 600 ± 10 nM
- IC50 [15]: 2800 ± 300 nM
